From patent publication US10442815B2, “Tricyclic heterocyclic compounds as phosphoinositide 3-kinase inhibitors” (Karus Therapeutics Limited, priority 2015, dated 2019)

Assays:
Assay in all cases: Ki determination, non-radiometric ADP-Glo assay (Proqinase GmbH)
Assay type in all cases: biochemical
[1] = biological target: T1, PI3K p110δ (Homo sapiens, UniProt O00329)
T1 construct: assay run at Proqinase GmbH
Text: (§1) Biochemical activity against class I PI3K isoforms was confirmed by either Ki determination using the non-radiometric ADP-Glo™ assay (Promega, Madison, Wis., USA) at Proqinase GmbH, or IC50 determination using the HTRF biochemical assay at Reaction Biology Corp.

[2] = biological target: T2, PI3K p110α (Homo sapiens, UniProt P42336)
T2 construct: assay run at Proqinase GmbH
Text: as §1

[3] = biological target: T3, PI3K p110γ (Homo sapiens, UniProt P48736)
T3 construct: assay run at Proqinase GmbH
Text: as §1

[4] = biological target: T4, PI3K p110β (Homo sapiens, UniProt P42338)
T4 construct: assay run at Proqinase GmbH
Text: as §1

T4 sequence (P42338 whole entry): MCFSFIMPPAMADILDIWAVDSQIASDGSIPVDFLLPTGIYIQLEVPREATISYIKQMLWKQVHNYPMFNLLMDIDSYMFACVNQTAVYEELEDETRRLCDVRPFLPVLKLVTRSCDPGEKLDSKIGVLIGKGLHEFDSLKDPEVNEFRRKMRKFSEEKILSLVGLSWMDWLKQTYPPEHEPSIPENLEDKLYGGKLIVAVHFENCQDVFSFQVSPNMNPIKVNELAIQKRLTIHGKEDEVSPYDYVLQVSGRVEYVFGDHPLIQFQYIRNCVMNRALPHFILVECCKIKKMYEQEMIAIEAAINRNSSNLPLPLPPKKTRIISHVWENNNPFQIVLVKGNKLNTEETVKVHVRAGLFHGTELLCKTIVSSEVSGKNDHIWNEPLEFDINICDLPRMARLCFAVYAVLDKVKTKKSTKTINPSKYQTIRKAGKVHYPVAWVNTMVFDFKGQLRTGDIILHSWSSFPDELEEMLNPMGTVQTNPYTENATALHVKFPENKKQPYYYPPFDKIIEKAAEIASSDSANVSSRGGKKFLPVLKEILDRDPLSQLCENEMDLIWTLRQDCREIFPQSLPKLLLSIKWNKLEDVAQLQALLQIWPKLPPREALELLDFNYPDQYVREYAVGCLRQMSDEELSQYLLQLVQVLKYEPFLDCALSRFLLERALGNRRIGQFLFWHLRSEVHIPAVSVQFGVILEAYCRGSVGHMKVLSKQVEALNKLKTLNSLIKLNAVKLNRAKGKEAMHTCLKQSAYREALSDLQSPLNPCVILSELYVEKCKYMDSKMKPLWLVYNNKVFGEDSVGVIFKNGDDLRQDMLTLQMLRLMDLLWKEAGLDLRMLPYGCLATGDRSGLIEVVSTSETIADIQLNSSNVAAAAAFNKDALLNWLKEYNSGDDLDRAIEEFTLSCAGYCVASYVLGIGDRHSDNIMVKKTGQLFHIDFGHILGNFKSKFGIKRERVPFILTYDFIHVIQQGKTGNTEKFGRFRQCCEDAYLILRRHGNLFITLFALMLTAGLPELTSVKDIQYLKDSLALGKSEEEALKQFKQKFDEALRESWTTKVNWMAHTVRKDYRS
T4 sequence (P27986 whole entry partner): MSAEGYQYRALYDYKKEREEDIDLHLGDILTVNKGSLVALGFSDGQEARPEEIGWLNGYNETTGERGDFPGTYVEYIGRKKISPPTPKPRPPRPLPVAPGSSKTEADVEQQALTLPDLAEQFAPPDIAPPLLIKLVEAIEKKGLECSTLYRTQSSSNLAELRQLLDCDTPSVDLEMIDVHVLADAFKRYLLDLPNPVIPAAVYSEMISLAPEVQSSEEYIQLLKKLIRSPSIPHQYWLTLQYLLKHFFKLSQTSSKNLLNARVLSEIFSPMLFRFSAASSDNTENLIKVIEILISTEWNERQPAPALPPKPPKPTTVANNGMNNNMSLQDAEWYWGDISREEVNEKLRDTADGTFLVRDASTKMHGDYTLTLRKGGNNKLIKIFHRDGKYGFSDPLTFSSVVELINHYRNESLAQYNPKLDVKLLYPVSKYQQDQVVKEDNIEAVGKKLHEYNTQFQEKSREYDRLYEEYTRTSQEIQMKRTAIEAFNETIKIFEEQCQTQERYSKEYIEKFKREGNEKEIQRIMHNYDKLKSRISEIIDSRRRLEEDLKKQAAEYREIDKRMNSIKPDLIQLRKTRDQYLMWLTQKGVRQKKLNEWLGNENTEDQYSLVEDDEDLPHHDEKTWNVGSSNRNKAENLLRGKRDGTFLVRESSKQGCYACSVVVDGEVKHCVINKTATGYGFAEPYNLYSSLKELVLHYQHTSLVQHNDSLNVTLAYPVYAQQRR
T1 sequence (O00329 whole entry): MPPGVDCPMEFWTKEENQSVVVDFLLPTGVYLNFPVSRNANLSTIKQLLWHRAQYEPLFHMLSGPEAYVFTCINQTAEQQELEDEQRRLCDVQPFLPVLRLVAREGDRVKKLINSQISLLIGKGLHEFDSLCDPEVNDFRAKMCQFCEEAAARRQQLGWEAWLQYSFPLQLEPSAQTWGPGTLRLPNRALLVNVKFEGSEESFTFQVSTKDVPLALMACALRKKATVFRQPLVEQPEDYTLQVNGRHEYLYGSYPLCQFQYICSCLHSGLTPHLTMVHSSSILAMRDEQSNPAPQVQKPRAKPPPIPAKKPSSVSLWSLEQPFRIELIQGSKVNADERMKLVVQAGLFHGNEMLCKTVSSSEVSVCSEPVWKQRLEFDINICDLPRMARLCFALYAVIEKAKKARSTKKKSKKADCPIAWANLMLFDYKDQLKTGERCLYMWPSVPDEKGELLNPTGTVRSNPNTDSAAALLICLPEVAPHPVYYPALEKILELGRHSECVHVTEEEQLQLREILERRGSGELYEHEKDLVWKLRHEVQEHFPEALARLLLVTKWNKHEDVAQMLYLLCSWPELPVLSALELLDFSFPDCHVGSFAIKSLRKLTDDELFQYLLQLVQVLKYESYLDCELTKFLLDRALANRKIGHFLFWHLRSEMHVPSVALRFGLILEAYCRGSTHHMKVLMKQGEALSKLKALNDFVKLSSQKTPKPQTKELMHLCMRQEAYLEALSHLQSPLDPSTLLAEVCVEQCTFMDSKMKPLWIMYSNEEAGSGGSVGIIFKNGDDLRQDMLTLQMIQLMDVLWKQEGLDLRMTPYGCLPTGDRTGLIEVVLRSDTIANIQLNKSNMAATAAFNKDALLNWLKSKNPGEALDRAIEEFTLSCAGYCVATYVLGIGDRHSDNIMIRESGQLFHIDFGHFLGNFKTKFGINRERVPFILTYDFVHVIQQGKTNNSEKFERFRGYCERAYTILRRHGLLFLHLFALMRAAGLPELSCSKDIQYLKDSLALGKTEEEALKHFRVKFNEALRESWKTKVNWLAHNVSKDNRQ
T1 sequence (P27986 whole entry partner): as the sequence (P27986 whole entry partner) above
T3 sequence (P48736 whole entry): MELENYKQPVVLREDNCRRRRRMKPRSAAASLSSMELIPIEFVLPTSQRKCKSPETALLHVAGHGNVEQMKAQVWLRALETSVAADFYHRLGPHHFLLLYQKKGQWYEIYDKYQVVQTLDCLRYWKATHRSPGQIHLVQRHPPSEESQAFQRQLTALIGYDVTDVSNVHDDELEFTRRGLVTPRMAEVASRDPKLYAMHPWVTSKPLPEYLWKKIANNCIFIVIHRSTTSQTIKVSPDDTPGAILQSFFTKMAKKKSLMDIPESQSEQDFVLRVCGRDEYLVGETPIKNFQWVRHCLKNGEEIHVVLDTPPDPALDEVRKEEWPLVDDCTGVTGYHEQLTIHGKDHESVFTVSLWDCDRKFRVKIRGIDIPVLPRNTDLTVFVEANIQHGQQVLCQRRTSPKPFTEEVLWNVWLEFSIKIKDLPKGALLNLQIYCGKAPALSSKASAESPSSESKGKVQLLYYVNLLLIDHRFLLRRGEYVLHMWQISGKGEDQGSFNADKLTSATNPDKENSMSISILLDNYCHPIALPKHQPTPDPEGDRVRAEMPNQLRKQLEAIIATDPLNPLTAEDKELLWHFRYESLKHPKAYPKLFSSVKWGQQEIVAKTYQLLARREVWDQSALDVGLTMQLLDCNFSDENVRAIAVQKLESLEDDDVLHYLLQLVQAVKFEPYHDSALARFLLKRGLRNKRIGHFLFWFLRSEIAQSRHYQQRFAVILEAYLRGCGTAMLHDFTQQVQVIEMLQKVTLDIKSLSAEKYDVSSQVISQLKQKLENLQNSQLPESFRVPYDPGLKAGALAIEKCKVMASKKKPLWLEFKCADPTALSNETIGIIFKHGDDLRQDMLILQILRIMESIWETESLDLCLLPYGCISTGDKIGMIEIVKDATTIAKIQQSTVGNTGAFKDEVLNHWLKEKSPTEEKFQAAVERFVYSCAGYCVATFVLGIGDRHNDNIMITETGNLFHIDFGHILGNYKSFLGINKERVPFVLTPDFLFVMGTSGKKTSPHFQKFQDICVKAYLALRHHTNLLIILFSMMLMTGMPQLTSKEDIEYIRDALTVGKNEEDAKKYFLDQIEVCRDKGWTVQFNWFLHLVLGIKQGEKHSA
T2 sequence (P42336 whole entry): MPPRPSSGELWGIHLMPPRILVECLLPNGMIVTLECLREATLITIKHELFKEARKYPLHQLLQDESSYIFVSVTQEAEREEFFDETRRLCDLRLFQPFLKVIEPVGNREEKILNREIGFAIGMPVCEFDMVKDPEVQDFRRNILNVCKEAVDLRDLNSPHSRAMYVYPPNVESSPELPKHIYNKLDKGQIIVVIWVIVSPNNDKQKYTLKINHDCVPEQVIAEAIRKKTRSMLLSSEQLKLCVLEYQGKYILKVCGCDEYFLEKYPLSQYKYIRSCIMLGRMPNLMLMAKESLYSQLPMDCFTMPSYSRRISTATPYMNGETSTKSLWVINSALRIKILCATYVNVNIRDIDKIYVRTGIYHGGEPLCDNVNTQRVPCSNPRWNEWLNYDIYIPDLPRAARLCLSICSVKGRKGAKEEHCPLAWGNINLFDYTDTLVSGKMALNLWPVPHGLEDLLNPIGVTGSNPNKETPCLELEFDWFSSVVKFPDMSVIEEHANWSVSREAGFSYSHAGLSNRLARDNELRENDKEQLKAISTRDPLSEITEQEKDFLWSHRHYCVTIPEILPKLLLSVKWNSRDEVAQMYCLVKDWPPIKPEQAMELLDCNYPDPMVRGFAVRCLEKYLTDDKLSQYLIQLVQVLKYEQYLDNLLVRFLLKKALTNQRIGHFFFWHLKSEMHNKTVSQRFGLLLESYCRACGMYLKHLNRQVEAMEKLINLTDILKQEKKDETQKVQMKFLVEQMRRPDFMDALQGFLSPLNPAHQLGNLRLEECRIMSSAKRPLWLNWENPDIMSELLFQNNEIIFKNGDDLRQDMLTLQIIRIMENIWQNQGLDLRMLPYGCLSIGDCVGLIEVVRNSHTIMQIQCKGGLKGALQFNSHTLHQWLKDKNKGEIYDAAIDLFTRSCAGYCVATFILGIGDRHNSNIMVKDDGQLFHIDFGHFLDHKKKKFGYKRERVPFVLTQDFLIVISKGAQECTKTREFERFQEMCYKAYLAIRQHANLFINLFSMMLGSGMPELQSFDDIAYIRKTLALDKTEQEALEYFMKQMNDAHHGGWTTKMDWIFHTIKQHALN
T2 sequence (P27986 whole entry partner): as the sequence (P27986 whole entry partner) above

| SMILES | Ki [1] | Ki [2] | Ki [3] | Ki [4] |
| --- | --- | --- | --- | --- |
| O=C(O)c1ccc2[nH]ccc2c1-c1nc(N2CCOCC2)c2oc3ncc(CN4CC[S+]([O-])CC4)cc3c2n1 [Example X, 4-[6-(morpholin-4-yl)-12-[(1-oxo-1λ^4-thiomorpholin-4-yl)methyl]-8-oxa-3,5,10-triazatricyclo[7.4.0.0^2,^7]trideca-1(13),2(7),3,5,9,11-hexaen-4-yl]-1H-indole-5-carboxylic acid] | > 10000 nM | > 10000 nM | > 10000 nM | > 10000 nM |
| [O-][S+]1CCN(Cc2cnc3oc4c(N5CCOCC5)nc(-c5cc(C(F)(F)F)cc6[nH]ccc56)nc4c3c2)CC1 [Example F] | > 10000 nM | > 10000 nM | > 10000 nM | > 10000 nM |
| [O-][S+]1CCN(Cc2cnc3oc4c(N5CCOCC5)nc(-c5cccc6[nH]ccc56)nc4c3c2)CC1 [Example AH, 4-{[4-(1H-indol-4-yl)-6-(morpholin-4-yl)-8-oxa-3,5,10-triazatricyclo[7.4.0.0^2^,7]trideca-1(13),2(7),3,5,9,11-hexaen-12-yl]methyl}-1λ^4-thiomorpholin-1-one] | ≤ 500 nM | 1000 to 10000 nM | > 10000 nM | ≤ 500 nM |
| N#Cc1cc(-c2nc(N3CCOCC3)c3oc4ncc(CN5CC[S+]([O-])CC5)cc4c3n2)c2cc[nH]c2c1 [Example R, 4-[6-(morpholin-4-yl)-12-[(1-oxo-1λ^4-thiomorpholin-4-yl)methyl]-8-oxa-3,5,10-triazatricyclo[7.4.0.0^2,^7]trideca-1(13),2(7),3,5,9,11-hexaen-4-yl]-1H-indole-6-carbonitrile] | > 10000 nM | > 10000 nM | > 10000 nM | > 10000 nM |
| Cc1c[nH]c2cccc(-c3nc(N4CCOCC4)c4oc5ncc(CN6CC[S+]([O-])CC6)cc5c4n3)c12 [Example AL, 4-{[4-(3-Methyl-1H-indol-4-yl)-6-(morpholin-4-yl)-8-oxa-3,5,10-triazatricyclo[7.4.0.0^2^,7]trideca-1(13),2(7),3,5,9,11-hexaen-12-yl]methyl}-1λ^4-thiomorpholin-1-one] | 1000 to 10000 nM | > 10000 nM | > 10000 nM | > 10000 nM |
| c1cc(-c2nc(N3CCOCC3)c3oc4ncc(CN5C[C@@H]6C[C@H]5CS6)cc4c3n2)c2cc[nH]c2c1 [Example J, 4-(1H-Indol-4-yl)-6-(morpholin-4-yl)-12-[(1 S,4S)-2-thia-5-azabicyclo[2.2.1]heptan-5-ylmethyl]-8-oxa-3,5,10-triazatricyclo[7.4.0.0^2,7]trideca-1(13),2,4,6,9,11-hexaene] | ≤ 500 nM | 1000 to 10000 nM | > 10000 nM | ≤ 500 nM |
| CN(CCS(C)(=O)=O)Cc1cnc2oc3c(N4CCOCC4)nc(-c4cccc5[nH]ccc45)nc3c2c1 [Example C, {[4-(1H-Indol-4-yl)-6-(morpholin-4-yl)-8-oxa-3,5,10-triazatricyclo[7.4.0.0^2,7]trideca-1(13),2(7),3,5,9,11-hexaen-12-yl]methyl}(2-methanesulfonylethyl)methylamine] | ≤ 500 nM | ≤ 500 nM | 1000 to 10000 nM | ≤ 500 nM |
| [O-][S+]1CC2CC1CN2Cc1cnc2oc3c(N4CCOCC4)nc(-c4cccc5[nH]ccc45)nc3c2c1 [Example L, (1S,2R,4S)-5-{([4-(1H-Indol-4-yl)-6-(morpholin-4-yl)-8-oxa-3,5,10-triazatricyclo[7.4.0.0^2,7]trideca-1(13),2,4,6,9,11-hexaen-12-yl]methyl}-2-thia-5-azabicyclo[2.2.1]heptan-2-ium-2-olate] | ≤ 500 nM | 500 to 1000 nM | 1000 to 10000 nM | ≤ 500 nM |
| O=S1(=O)CCN(Cc2cnc3oc4c(N5CCOCC5)nc(-c5cccc6[nH]ccc56)nc4c3c2)CC1 [Example A, 4-{[4-(1H-Indol-4-yl)-6-(morpholin-4-yl)-8-oxa-3,5,10-triazatricyclo[7.4.0.0^2,7]trideca-1(13),2(7),3,5,9,11-hexaen-12-yl]methyl]-1λ^6-thiomorpholine-1,1-dione] | ≤ 500 nM | 1000 to 10000 nM | > 10000 nM | ≤ 500 nM |
| [O-][S+]1CCN(Cc2cnc3oc4c(N5CCOCC5)nc(-c5cc(F)cc6[nH]ccc56)nc4c3c2)CC1 [Example D] | ≤ 500 nM | > 10000 nM | > 10000 nM | ≤ 500 nM |
| [O-][S+]1CCN(Cc2cnc3oc4c(N5CCOCC5)nc(-c5ccc(F)c6[nH]ccc56)nc4c3c2)CC1 [Example Q, 4-{[4-(7-Fluoro-1H-indol-4-yl)-6-(morpholin-4-yl)-8-oxa-3,5,10-triazatricyclo[7.4.0.0^2,7]trideca-1(13),2(7),3,5,9,11-hexaen-12-yl]methyl}-1λ^4-thiomorpholin-1-one] | ≤ 500 nM | > 10000 nM | > 10000 nM | 1000 to 10000 nM |
| N=S1(=O)CCN(Cc2cnc3oc4c(N5CCOCC5)nc(-c5cccc6[nH]ccc56)nc4c3c2)CC1 [Example G] | ≤ 500 nM | 500 to 1000 nM | 1000 to 10000 nM | ≤ 500 nM |
| COc1ccc2c(c1-c1nc(N3CCOCC3)c3oc4ncc(CN5CC[S+]([O-])CC5)cc4c3n1)CCN2 [Example AI, 4-{[4-(5-Methoxy-2,3-dihydro-1H-indol-4-yl)-6-(morpholin-4-yl)-8-oxa-3,5,10-triazatricyclo[7.4.0.0^2^,7]trideca-1(13),2(7),3,5,9,11-hexaen-12-yl]methyl}-1λ^4-thiomorpholin-1-one] | ≤ 500 nM | > 10000 nM | > 10000 nM | 1000 to 10000 nM |
| [O-][S+]1CCN(Cc2cnc3oc4c(N5CCOCC5)nc(-c5c(Cl)ccc6c5CCN6)nc4c3c2)CC1 [Example U, 4-{[4-(5-Chloro-2,3-dihydro-1H-indol-4-yl)-6-(morpholin-4-yl)-8-oxa-3,5,10-triazatricyclo[7.4.0.0^2,7]trideca-1(9),2,4,6,10,12-hexaen-12-yl]methyl}-1λ^4-thiomorpholin-1-one] | ≤ 500 nM | > 10000 nM | > 10000 nM | 1000 to 10000 nM |

Second part, the compound after the results:

| Ki [1] | Ki [2] | Ki [3] | Ki [4] | SMILES |
| --- | --- | --- | --- | --- |
| ≤ 500 nM | > 10000 nM | > 10000 nM | 1000 to 10000 nM | [O-][S+]1CCN(Cc2cnc3oc4c(N5CCOCC5)nc(-c5cccc6[nH]cc(F)c56)nc4c3c2)CC1 [Example AJ, 4-{[4-(3-fluoro-1H-indol-4-yl)-6-(morpholin-4-yl)-8-oxa-3,5,10-triazatricyclo[7.4.0.0^2^,7]trideca-1(13),2(7),3,5,9,11-hexaen-12-yl]methyl}-1λ^4-thiomorpholin-1-one] |
| ≤ 500 nM | 500 to 1000 nM | 1000 to 10000 nM | ≤ 500 nM | Cc1cc2c(-c3nc(N4CCOCC4)c4oc5ncc(CN6CC[S+]([O-])CC6)cc5c4n3)cccc2[nH]1 [Example AG, 4-{[4-(2-methyl-1H-indol-4-yl)-6-(morpholin-4-yl)-8-oxa-3,5,10-triazatricyclo[7.4.0.0^2^,7]trideca-1(13),2(7),3,5,9,11-hexaen-12-yl]methyl}-1λ^4-thiomorpholin-1-one] |
| ≤ 500 nM | > 10000 nM | > 10000 nM | ≤ 500 nM | [O-][S+]1CCN(Cc2cnc3oc4c(N5CCOCC5)nc(-c5cccc6c5CCN6)nc4c3c2)CC1 [Example O, 4-{[4-(2,3-Dihydro-1H-indol-4-yl)-6-(morpholin-4-yl)-8-oxa-3,5,10-triazatricyclo[7.4.0.0^2,7]trideca-1(13),2(7),3,5,9,11-hexaen-12-yl]methyl}-1λ^4-thiomorpholin-1-one] |
| ≤ 500 nM | 500 to 1000 nM | 1000 to 10000 nM | ≤ 500 nM | C[C@H](c1cnc2oc3c(N4CCOCC4)nc(-c4cccc5[nH]ccc45)nc3c2c1)N1CCS(=O)(=O)CC1 [Example H, 4-[(1R)-1-[4-(1H-Indol-4-yl)-6-(morpholin-4-yl)-8-oxa-3,5,10-triazatricyclo[7.4.0.0^2,7]trideca-1(13),2,4,6,9,11-hexaen-12-yl]ethyl]-1λ^6-thiomorpholine-1,1-dione] |
| ≤ 500 nM | ≤ 500 nM | 500 to 1000 nM | ≤ 500 nM | [O-][S+]1CCN(Cc2cnc3oc4c(N5CCOCC5)nc(-c5c(OC(F)(F)F)ccc6[nH]ccc56)nc4c3c2)CC1 [Example Z, 4-{[6-(Morpholin-4-yl)-4-[5-(trifluoromethoxy)-1H-indol-4-yl]-8-oxa-3,5,10-triazatricyclo[7.4.0.0^2^,7]trideca-1(9),2,4,6,10,12-hexaen-12-yl]methyl}-1λ^4-thiomorpholin-1-one] |
| ≤ 500 nM | > 10000 nM | > 10000 nM | 1000 to 10000 nM | Cc1ccc2c(c1-c1nc(N3CCOCC3)c3oc4ncc(CN5CC[S+]([O-])CC5)cc4c3n1)CCN2 [Example V, 4-{[4-(5-Methyl-2,3-dihydro-1H-indol-4-yl)-6-(morpholin-4-yl)-8-oxa-3,5,10-triazatricyclo[7.4.0.0^2,7]trideca-1(9),2,4,6,10,12-hexaen-12-yl]methyl}-1λ^4-thiomorpholin-1-one] |
| ≤ 500 nM | 1000 to 10000 nM | 1000 to 10000 nM | ≤ 500 nM | Cc1ccc2[nH]ccc2c1-c1nc(N2CCOCC2)c2oc3ncc(CN4CC[S+]([O-])CC4)cc3c2n1 [Example P, 4-{[4-(5-Methyl-1H-indol-4-yl)-6-(morpholin-4-yl)-8-oxa-3,5,10-triazatricyclo[7.4.0.0^2,7]trideca-1(9),2,4,6,10,12-hexaen-12-yl]methyl}-1λ^4-thiomorpholin-1-one] |
| ≤ 500 nM | 1000 to 10000 nM | > 10000 nM | ≤ 500 nM | O=S1(=O)C[C@@H]2C[C@H]1CN2Cc1cnc2oc3c(N4CCOCC4)nc(-c4cccc5[nH]ccc45)nc3c2c1 [Example K, (1S,4S)-5-{[4-(1H-Indol-4-yl)-6-(morpholin-4-yl)-8-oxa-3,5,10-triazatricyclo[7.4.0.0^2,7]trideca-1(13),2,4,6,9,11-hexaen-12-yl]methyl}-2λ^6-thia-5-azabicyclo[2.2.1]heptane-2,2-dione] |
